Biological target: T1, DGKK (Diacylglycerol kinase kappa) (Homo sapiens, UniProt Q5KSL6)
T1 construct: host or cells: SILAC HEK293T
T1 sequence (Q5KSL6 1-1271): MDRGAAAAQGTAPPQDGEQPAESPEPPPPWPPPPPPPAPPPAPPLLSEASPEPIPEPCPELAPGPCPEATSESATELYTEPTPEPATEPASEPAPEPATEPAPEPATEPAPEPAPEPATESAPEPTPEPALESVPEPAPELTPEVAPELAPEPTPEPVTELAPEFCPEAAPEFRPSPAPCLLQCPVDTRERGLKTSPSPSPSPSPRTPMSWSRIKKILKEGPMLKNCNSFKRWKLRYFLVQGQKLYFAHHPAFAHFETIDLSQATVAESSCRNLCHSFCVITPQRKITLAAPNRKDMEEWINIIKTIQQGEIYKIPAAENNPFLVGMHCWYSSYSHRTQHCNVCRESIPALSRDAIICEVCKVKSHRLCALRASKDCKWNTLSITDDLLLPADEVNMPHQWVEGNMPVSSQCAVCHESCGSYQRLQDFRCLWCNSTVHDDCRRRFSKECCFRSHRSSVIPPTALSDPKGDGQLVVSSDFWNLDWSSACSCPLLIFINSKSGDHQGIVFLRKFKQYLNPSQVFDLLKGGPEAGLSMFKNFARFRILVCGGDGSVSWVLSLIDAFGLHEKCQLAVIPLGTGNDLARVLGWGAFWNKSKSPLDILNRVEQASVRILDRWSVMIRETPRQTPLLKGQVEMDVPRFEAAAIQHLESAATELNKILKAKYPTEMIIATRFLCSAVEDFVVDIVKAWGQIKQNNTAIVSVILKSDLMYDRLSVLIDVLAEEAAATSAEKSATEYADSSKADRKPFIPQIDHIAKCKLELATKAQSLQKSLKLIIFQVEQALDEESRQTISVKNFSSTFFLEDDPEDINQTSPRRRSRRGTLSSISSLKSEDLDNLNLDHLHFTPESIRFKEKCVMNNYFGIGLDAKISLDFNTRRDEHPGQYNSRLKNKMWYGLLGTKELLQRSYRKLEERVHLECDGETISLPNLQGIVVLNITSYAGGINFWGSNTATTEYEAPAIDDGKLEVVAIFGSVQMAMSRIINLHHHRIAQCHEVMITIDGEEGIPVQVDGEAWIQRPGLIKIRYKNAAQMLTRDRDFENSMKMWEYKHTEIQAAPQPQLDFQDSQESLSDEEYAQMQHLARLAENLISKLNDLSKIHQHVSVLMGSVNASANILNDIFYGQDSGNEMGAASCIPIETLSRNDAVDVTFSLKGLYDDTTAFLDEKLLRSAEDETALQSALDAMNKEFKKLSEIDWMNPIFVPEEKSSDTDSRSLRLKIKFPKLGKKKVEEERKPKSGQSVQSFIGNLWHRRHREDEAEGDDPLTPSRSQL
Test: SILAC LC-MS ATP acyl phosphate probe competition, recombinant DGK-HEK293T lysates
Format: binding
Conditions: site DAGKa (K892); ATP 1 mM; Ketanserin, Ritanserin 100 μM; RF001 1 mM
Excerpt: Recombinant DGK proteins were produced by transient transfection of HEK293T cells with recombinant DNA. pDONR223-DGKK was a gift from William Hahn & David Root (Addgene plasmid #23487). pCSF107mT-GATEWAY-3′-FLAG was a gift from Todd Stukenberg (Addgene plasmid #67619). pCSF107mT-DGKK-FLAG construct was generated by recombination of the Addgene plasmids using the Gateway cloning system (Invitrogen). All other vectors were gifted to Dr. Kevin Lynch (University of Virginia, School of Medicine) by Dr. Kaoru Goto (Yamagata University, School of Medicine) and Dr. Fumio Sakane (Chiba University) and were kindly shared with us: pcDNA3-FLAG-DGKA (rat), pCMV-Tag2B-FLAG-DGKQ (human), pcDNA3-DGKE-3×Flag (human), and pCMV-SPORT6-HA-DGKZ (human). HEK293T cells were plated at a concentration of 400,000 cells in complete DMEM and grown to 50-60% confluency. A polyethyleneimine (PEI) stock solution was prepared (1 mg/mL, pH 7.4) and filter sterilized. Serum-free DMEM (600 μL) was mixed gently with 2.6 μg DNA and 20 μL of sterile PEI (1 mg/mL, pH 7.4) in a sterile microfuge tube. Mixtures were incubated for 30 min at 25° C. The mixture was then added drop-wise to each 10 cm^2 plate, rocked back and forth to mix, and placed back in the incubator. Cell pellets were harvested after two full days of growth, snap-frozen in liquid N2, and stored at −80° C. until use. Recombinant proteins were produced by transient transfection in SILAC HEK293T cells using the procedure described above, except that cells were plated at a concentration of 1×10^6 cells per 10 cm^2 plate and grown to ˜70% confluency prior to introducing transfection mixture.
Proteomes were diluted to 2 mg/ml in kinase buffer. The light and heavy proteomes (0.5 mg, 250 μL total reaction volume) were pre-treated with vehicle or compound, respectively (5 μL, DMSO (light) or 50× stock in DMSO (heavy)), mixed gently, and incubated at 25° C. for 30 min. […] After incubation, matched light and heavy proteomes were transferred and mixed in a 1:1 ratio in a two-dram vial containing 4:1:3 MeOH/CHCl3/H2O (2 mL MeOH, 500 AL CHCl3, 1.5 mL H2O) for extraction of proteins to remove excess probe, quickly vortexed, and centrifuged at 1,400×g for 3 min to pellet protein. Organic and aqueous layers were removed using a Pasteur pipette, and the protein pellet was transferred to a screw-top tube in 600 μL MeOH. A second extraction was performed by adding CHCl3 (150 μL) and H2O (600 μL) to each sample, vortexed, and centrifuged at 1,400×g for 3 min to pellet protein. Organic and aqueous layers were removed by pipetting. MeOH added to pellet (600 μL) and pellets were re-suspended by sonication (3×1 sec pulse, 20% amplitude) for a final extraction. Samples were then centrifuged at 17,000×g for 5 min to pellet protein and MeOH was removed by pipetting. The pellets were re-suspended in 10 M urea/25 mM ammonium bicarbonate ([…]), brought to a final volume of 1 mL with 25 mM ammonium bicarbonate, reduced with 10 mM DTT for 15 min at 65° C. allowed to cool, and then alkylated with 40 mM iodoacetamide for 30 min at 25° C. in the dark. To desalt the samples, each was transferred to a two-dram glass vial, and to the vial 4:1:2 MeOH/CHCl3/H2O (2 mL MeOH, 500 AL CHCl3, 1 mL H2O) was added. The vials were vortexed quickly, spun at 1.400×g for 3 min to pellet protein, and aqueous and organic layers were removed using a Pasteur pipette. The resulting protein pellet was transferred to a screw-top tube in 600 μL MeOH, and then CHCl3 (150 μL) and HO (600 μL) were added to extract protein a second time. The samples were vortexed quickly, centrifuged at 1,400×g to pellet protein, and the aqueous and organic layers were removed by pipetting. Resulting protein pellet was suspended in MeOH (600 μL) via sonication (3×1 sec pulse, 20% amplitude), centrifuged at 17,000×g for 5 min to pellet protein, and MeOH removed by pipetting. […]

Row | SMILES | SILAC ratio, DGKK DAGKa probe-modified peptide
1 | O=C(c1ccc(F)cc1)C1CCN(CCn2c(=O)[nH]c3ccccc3c2=O)CC1 [Ketanserin] | 0.2
2 | Fc1ccc(C(=C2CCNCC2)c2ccc(F)cc2)cc1 [RF001, 4-(Bis(4-fluorophenyl)methylene) piperidine] | 1.6
3 | Cc1nc2sccn2c(=O)c1CCN1CCC(=C(c2ccc(F)cc2)c2ccc(F)cc2)CC1 [Ritanserin] | 0.7
